Measurements taken from US20060020036A1, “Methods and compositions to promote bone homestasis” (priority 2004, published 2006).
“Also recorded” adds a separate entry of the source.

Assays:
NR1H2 = target: T1, NR1H2 (Homo sapiens, UniProt P55055); assay: AP assay: MPCs infected with Ad-NR1H2 and treated with ligand; type: cell-based; conditions: ligand at different concentrations
T1 construct: amplification of the complete open reading frame from ATG start codon to the stop codon of drugable genes; expressed in transfected cells; host or cells: primary human mesenchymal progenitor cells (MPCs), transduced with Ad5-NR1H2 and Ad-hCAR
T1 sequence (P55055 1-460): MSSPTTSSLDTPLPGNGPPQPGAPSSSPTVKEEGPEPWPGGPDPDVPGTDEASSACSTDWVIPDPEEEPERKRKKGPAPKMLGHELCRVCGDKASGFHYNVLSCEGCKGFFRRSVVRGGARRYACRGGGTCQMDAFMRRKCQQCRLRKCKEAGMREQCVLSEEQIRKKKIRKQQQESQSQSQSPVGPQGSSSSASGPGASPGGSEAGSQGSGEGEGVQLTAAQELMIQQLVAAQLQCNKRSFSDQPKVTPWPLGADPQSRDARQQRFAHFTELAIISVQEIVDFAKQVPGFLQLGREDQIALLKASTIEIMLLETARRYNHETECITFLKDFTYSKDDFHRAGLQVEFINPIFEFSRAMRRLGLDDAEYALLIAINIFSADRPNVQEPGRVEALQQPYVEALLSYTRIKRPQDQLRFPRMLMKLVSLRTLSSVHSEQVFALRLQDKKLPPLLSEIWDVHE
Experimental: MPCs are seeded on day0 at 1000 cells per well of a 384 well plate and co-infected the next day using AdC51-hCAR (MOI 250) and different MOIs of Ad5-NR1H3 (MOI 2000, 666). On day 1, 5 concentrations (1E-9M, 1E-8M, 1E-7M, 1E-6M, 1E-5M) of the compound T0901317 (Cayman Chemical, Michigan, USA, Cat. No. 71810) with fixed vehicle concentration (DMSO at final concentration of 0.1%) are added to the wells. After 6 days, medium is removed and replaced with fresh medium containing the same concentrations of the compound T0901317. Readouts of AP activity are performed at several time points after the start of the experiment, typically after 7, 10 and 13 days. Up-regulation of alkaline phosphatase activity is read as follows: medium is removed from the monolayers, 15 μl MUP is added to each well, the plates are incubated for 15 min at 37° C. and then read for AP activity using a fluorescence plate reader (Fluostar, BMG).
(§1) MPCs are seeded on day 0 at 1000 cells per well of a 384 well plate and co-infected the next day using AdC51-hCAR (MOI 250) and different MOIs of Ad5-NR1H2 (MOI 2000, 666). […] Readouts of AP activity are performed at several time points after the start of the experiment, typically after 7, 10 and 13 days. Up-regulation of alkaline phosphatase activity is read as follows: medium is removed from the monolayers, 15 μL MUP is added to each well, the plates are incubated for 15 min at 37° C. and then read for AP activity using a fluorescence plate reader (Fluostar, BMG).
as §1, with “day0” for “day 0”, “AdC5′-hCAR” for “AdC51-hCAR”, “Ad5-NR1H2 or Ad-NR1H3” for “Ad5-NR1H2”, “6000).” for “666).”, “μl” for “μL”

primary human MPCs = assay: Mineralization assay (Alizarin RedS / Von Kossa); type: cell-based; conditions: MPCs with NR1H3 and T0901317
Experimental: On day one, primary human MPCs are seeded in a 6 well plate (Costar or Nunc) at a density of 50,000 to 250,000 cells per well, typically at 100,000 cells per well. MPCs are co-infected one day later with AdC15-hCAR (MOI 750) and Ad-control (eGFP or BMP2) or hit-virus (Ad5) (at MOIs between 250 and 20,000, typically at MOIs 5000 and 2500). For Ad-GPCR or Ad-NHR experiments, cells can additionally be treated with specific ligands. These are added at the EC50 concentration and at concentrations 5-10 times higher and lower. Ligands are added 2-3 times per week. Medium supplemented with 100 μg/ml L-ascorbate and 10 mM beta-glycerophosphate, is refreshed 2 times a week. 20 to 30 days after the start of the experiment, cells are stained with Von Kossa stain or with Alizarin RedS stain.
The Alizarin RedS staining is carried out as follows: cells are washed once with PBS, fixed with 10% paraformaldehyde for 45 minutes at 4° C., and washed 2 times with PBS. Cells are incubated with 40 mM aqueous Alizarin RedS solution, pH 4.1-4.3 for 10 minutes followed by 5 washes with distilled water. Staining is evaluated and photographed using white light.

SMILES	up-regulation of endogenous alkaline phosphatase (AP) activity, dose-response (NR1H2)	mineralization (primary human MPCs)
CC(=O)Oc1ccc2c(c1)[C@@]1(C)CCC[C@](C)(C(=O)OC(=O)[C@@]3(C)CCC[C@]4(C)c5cc(OC(C)=O)ccc5CC[C@@H]34)[C@@H]1CC2 [APD, acetyl podocarpic dimer]	dose-response relation is observed; also recorded: AP activity is up-regulated; also recorded: Dose-dependent up-regulation of AP activity	
O=C(O)Cc1cccc(OCCCN(Cc2cccc(C(F)(F)F)c2Cl)CC(c2ccccc2)c2ccccc2)c1 [GW3965, 2-(3-(3-(N-(2-chloro-3-(trifluoromethyl)benzyl)-N-(2,2-diphenylethyl)amino)propoxy)phenyl)acetic acid]	dose-response relation is observed; also recorded: AP activity is up-regulated; also recorded: Dose-dependent up-regulation of AP activity	
O=S(=O)(c1ccccc1)N(CC(F)(F)F)c1ccc(C(O)(C(F)(F)F)C(F)(F)F)cc1 [T0901317, N-(2,2,2-trifluoroethyl)-N-[4-[2,2,2-trifluoro-1-hydroxy-1-(trifluoromethyl)ethyl]phenyl]-benzenesulfonamide]	dose-response relation is observed; also recorded: AP activity is up-regulated; also recorded: Dose-dependent up-regulation of AP activity	score well
